Laboratory results published in ChEMBL document CHEMBL1138554, “Synthesis and QSAR evaluation of 2-(substituted phenyl)-1H-benzimidazoles and [2-(substituted phenyl)-benzimidazol-1-yl]-pyridin-3-yl-methanones” (Eur J Med Chem, 2009).

Legend:
Bacillus subtilis = assay: Antimicrobial activity against Bacillus subtilis at 37 degC after 24 hrs by tube dilution method; format: functional; parameters: unit not given here
Staphylococcus aureus = assay: Antimicrobial activity against Staphylococcus aureus at 37 degC after 24 hrs by tube dilution method; format: functional; parameters: unit not given here
Aspergillus niger = assay: Antifungal activity against Aspergillus niger at 25 degC after 7 days by tube dilution method; format: functional; parameters: unit not given here
[1] = Octanol-water partition coefficient, log P of the compound; format: physicochemical
Candida albicans = assay: Antifungal activity against Candida albicans at 37 degC after 48 hrs by tube dilution method; format: functional; parameters: unit not given here
Escherichia coli = assay: Antimicrobial activity against Escherichia coli at 37 degC after 24 hrs by tube dilution method; format: functional; parameters: unit not given here

Compound	-logMIC (Bacillus subtilis)	-logMIC (Staphylococcus aureus)	-logMIC (Aspergillus niger)	logP [1]	-logMIC (Candida albicans)	-logMIC (Escherichia coli)
O=C(O)c1cn(C2CC2)c2cc(N3CCNCC3)c(F)cc2c1=O [CIPROFLOXACIN]	3.33	3.33				
Oc1ccc(-c2nc3ccccc3[nH]2)cc1	1.79	1.53	1.33	2.83	1.43	1.7
O=C(c1cccnc1)n1c(-c2cccc(Cl)c2)nc2ccccc21	1.5	1.79	1.43	4.7	1.73	1.8
Clc1ccccc1-c1nc2ccccc2[nH]1	1.49	1.4	1.26	3.63	1.26	1.49
O=C(c1cccnc1)n1c(-c2cccc([N+](=O)[O-])c2)nc2ccccc21	1.44	1.44	1.44	4.13	1.74	1.44
O=[N+]([O-])c1cccc(-c2nc3ccccc3[nH]2)c1	1.72	1.47	1.58	3.07	1.58	1.41
O=C(O)c1ccccc1-c1nc2ccccc2n1C(=O)c1cccnc1	1.44	1.44	1.44	4.13	1.74	1.44
OC(Cn1cncn1)(Cn1cncn1)c1ccc(F)cc1F [FLUCONAZOLE]			2.64		2.64	3.33
O=C(c1cccnc1)n1c(-c2ccc(O)cc2)nc2ccccc21	1.57	1.7	1.4	3.89	1.7	1.8
Clc1cccc(-c2nc3ccccc3[nH]2)c1	1.49	1.49	1.36	3.63	1.26	1.65
O=[N+]([O-])c1ccccc1-c1nc2ccccc2[nH]1	1.73	1.17	1.58	3.07	1.58	1.35
O=[N+]([O-])c1ccc(-c2nc3ccccc3[nH]2)cc1	1.78	1.01	1.58	3.07	1.58	1.2
Clc1ccc(-c2nc3ccccc3[nH]2)cc1	1.51	1.66	1.4	3.63	1.56	1.66
O=C(c1cccnc1)n1c(-c2ccccc2[N+](=O)[O-])nc2ccccc21	1.5	1.5	1.44	4.13	1.74	1.5
c1ccc(-c2nc3ccccc3[nH]2)cc1	1.68	1.46	1.49	3.11	1.49	1.72
COc1ccccc1-c1nc2ccccc2[nH]1	1.71	1.5	1.35	2.86	1.25	1.65
O=C(O)c1ccccc1-c1nc2ccccc2[nH]1	1.7	1.5	1.28	2.81	1.48	1.7
O=C(c1cccnc1)n1c(-c2ccccc2Cl)nc2ccccc21	1.43	1.73	1.43	4.7	1.73	1.65
COc1ccccc1-c1nc2ccccc2n1C(=O)c1cccnc1	1.42	1.42	1.42	3.93	1.72	1.6
O=C(c1cccnc1)n1c(-c2ccc([N+](=O)[O-])cc2)nc2ccccc21	1.44	1.44	1.44	4.13	1.74	1.44
O=C(c1cccnc1)n1c(-c2ccc(Cl)cc2)nc2ccccc21	1.43	1.73	1.43	4.7	1.73	1.73
